Experimental data taken from patent US11214586B2, “Rhodamine triplet state complex and preparation and photodynamic therapy (PDT) study thereof” (SOUTHERN UNIVERSITY OF SCIENCE AND TECHNOLOGY, priority 2018, dated 2022).

Assays:
[1] = Singlet oxygen quantum yield; format: physicochemical
Description: The long-lived triplet excited state of rhodamine is anticipated to interact with molecular oxygen (^3O2) to form singlet oxygen (^1O2), which is useful for PDT applications. The ability of M-Rho to produce ^1O2 has been evaluated spectroscopically by the observation of ^1O2 emission at about 1270 nm (inset of FIG. 2b). Remarkable ^1O2 emission is observed in Ir-Rho, Re-Rho and Pt-Rho but not for Rh-Rho and bpy-Rho. By monitoring the diminution of the characteristic absorption of the ^1O2 scavenger 1,3-diphenylisobenzofuran (DPBF) at 410 nm, ^1O2 generation is also confirmed and the corresponding quantum yields (ϕΔ) for the complexes are determined (Table 1). […] The rate and quantum yield of ^1O2 generation are found to vary with different metal systems.
Singlet oxygen quantum yield was determined by comparing the ^1O2 emission intensity of Rose Bengal and M-Rho.

[2] = Octanol-water partition coefficient
Description: Octanol-water partition coefficients (log Po/w)^[27] of bpy-Rho and M-Rho have been measured in order to study their lipophilic/hydrophilic characters. The higher is the log Po/w value associated with the dye, the higher is its lipophilic character.

[3] = UV/Vis absorption spectra; format: physicochemical
Protocol: (§1) The UV-vis absorption spectra were taken on Cary 60 UV-vis spectrophotometer. Steady-state emission spectra at room temperature were recorded on an Edinburgh Instruments FLS980 fluorescence spectrometer. Quartz cuvettes (path length=1 cm) were used in all spectrophotometric and fluorometric measurements. NMR spectra were recorded on a Bruker AVANCE 400 (^1H NMR for 400 MHz and ^13C NMR for 100 MHz) Fourier transform NMR spectrometer with chemical shifts reported relative to tetramethylsilane, (CH3)4Si. High-resolution MS spectra were performed on an Orbitrap Fusion Tribrid mass spectrometer. Elemental analyses of the newly synthesized complexes were preformed on a Elementar Vario EL Cube elemental analyzer at Sun Yat-sen University. The nanosecond time-resolved transient-difference absorption spectra were detected by using Edinburgh LP920 instruments (Edinburgh Instruments, U.K.). All solutions for transient absorption studies were degassed on a high-vacuum line in a two-compartment cell consisting of a 10-ml Pyrex bulb and a 1-cm or 4-mm path length quartz cuvette and sealed from the atmosphere by a Bibby Rotaflo HP6 Teflon stopper. The solutions were rigorously degassed with at least four successive freeze-pump-thaw cycles. Emission lifetime measurements were performed using a conventional laser system. The excitation source used was a 355-nm output (third harmonic) of a Spectra-Physics Quanta-Ray Q-switched GCR-150-10 pulsed Nd-YAG laser. Luminescence decay signals were detected by a Hamamatsu R928 PMT and recorded on a Tektronix Model TDS-620A (500 MHz, 2 GS/s) digital oscilloscope and analyzed using a program for exponential fits. Absolute quantum yields were measured by HAMAMATSU-C11347.

[4] = Nanosecond transient absorption difference spectroscopy; format: physicochemical; settings: measured by transient absorption in CH3CN
Description: Nanosecond transient absorption (TA) difference spectroscopy was employed to investigate the triplet excited states of M-Rho (FIG. 2c and FIGS. 16-19). Upon pulsed laser excitation at 355 nm, an intense bleaching signal at 575 nm with lifetime in microsecond range is observed, which is ascribed to the depletion of ground state rhodamine absorption. Such a long-lived excited state should be localized on the rhodamine unit, and is assigned as the ^3IL excited state of rhodamine in M-Rho. The absorption signal at 610-800 nm is due to the rhodamine ^3IL excited state absorption. In contrast, no signal from this triplet excited state is detected in bpy-Rho because of the lack of efficient ISC. On the other hand, only the transient absorption signals originating from the corresponding ^3MLCT excited states are observed in the rhodamine-free analogues (FIGS. 20-21).
as §1

tumor cells = assay: Selective uptake by flow cytometry, tumor cells versus normal cells; format: cell-based; settings: among bpy-Rho and M-Rho
Protocol: (§2) Tumor cells (MCF-7/A 549/HepG2/4T1) and normal cells (MCF-10A/293T/L02/NIH-3T3) (1×10^4 cells) was cultured in six-well plate for 12 h. and then Cells were changed with a medium containing 5 μM complexes (rho-bpy, rho-bpy-Pt-ph, rho-bpy-Rh-ppy, rho-bpy-Re and rho-bpy-Ir-ppy). Cells were washed three times with PBS after 2 h of incubation, Then the cells were harvested, and the fluorescence intensity of complexes were recorded by flow cytometer.

MCF-7 = assay: Selective uptake by flow cytometry; format: cell-based, human; settings: MCF-7, 5 μM, 2 h incubation
Protocol: as §2

A549 = assay: Selective uptake by flow cytometry; format: cell-based, human; settings: A549, 5 μM, 2 h incubation
Protocol: as §2

MCF-7 cells [5] = assay: Mitochondrial membrane potential, flow-cytometry-based JC-1 assay; format: cell-based, human; settings: 5 uM, 11 W lamp 30 min
Protocol: Mitochondrial depolarization was assessed by flow cytometry after incubation with JC-1 Molecular Probes (Thermo Fisher Scientific, USA). Briefly, The MCF-7 cells were seeded in six-well plate, incubated for 24 h in 5% CO2 at 37° C. Next, added to compounds (bpy-Rho and M-Rho) in medium make the final concentrations of 5 uM compounds. After irradiation treatment (11 W lamp 30 min). The cells were resuspended in warm PBS, and incubated with JC-1 (4 μg/ml) for 30 min at 37° C. and 5% CO2. Thereafter the cells were centrifuged, resuspended in 600 μL of PBS, and analyzed immediately on a flow cytometer (Becton Dickinson, San Jose, Calif., USA). Untreated cells were used as negative controls.

MCF-7 cells [6] = assay: Intracellular ROS, DCFH-DA assay; format: cell-based, human; settings: 5 μM, 11-W lamp for 30 min
Protocol: The MCF-7 cells were seeded in eight-well chambered coverglasses (lab-Tek, Nunc, USA) and six-well plate, incubated for 24 h in 5% CO2 at 37° C. Next, added to compounds (bpy-Rho and M-Rho) in medium make the final concentrations of 5 μM compounds. After irradiation treatment (11 W lamp 30 min), cells were promptly washed with PBS and incubated with 4 μg/ml 2′7′-dichloro-fluoreseindiacetate (DCFH-DA) for 30 min, and intracellular ROS generation was evaluated by flow cytometry and confocal microscopy.

4T1 = assay: Selective uptake by flow cytometry; format: cell-based, mouse; settings: 4T1, 5 μM, 2 h incubation
Protocol: as §2

[7] = Steady-state emission spectra and absolute luminescence quantum yield; format: physicochemical
Protocol: as §1

CCN(CC)c1ccc2c(-c3ccnc(-c4cc(C)ccn4)c3)c3ccc(=[N+](CC)CC)cc-3oc2c1.F[P-](F)(F)(F)(F)F.F[P-](F)(F)(F)(F)F.c1ccc(-c2cccc[c]2[Ir+][c]2ccccc2-c2ccccn2)nc1 [Ir-Rho]
rate and quantum yield of 1O2 generation, ranking ([1]; among M-Rho): highest QY | ΦΔ (singlet oxygen quantum yield) ([1]; relative to rose bengal (ΦΔ = 0.76)): 0.62 | log Po/w [2]: −0.39 | λabs ([3]; absorption maximum, in CH3CN): 575 nm | ε × 10^4 ([3]; molar extinction coefficient at the absorption maxima, values × 10^4): 8.75 M^−1 cm^−1 | TT (triplet-state lifetimes) [4]: 0.82 μs | uptake efficiency and affinity to tumor cells, ranking (tumor cells): highest uptake efficiency and affinity | contrast index (CI) (MCF-7): higher than 2.5 | contrast index (CI) (A549): higher than 2.5 | ratio of JC-1 aggregates/JC-1 monomers (MCF-7 cells [5]): 1.79 | intracellular ROS generation (MCF-7 cells [6]): highest ROS generation ability | contrast index (CI) (4T1): higher than 2.5 | λem ([7]; Conc. = 1.0 × 10^−6M in MeOH): 629 nm | Φlum ([7]; absolute luminescence quantum yield measured by HAMAMATSU-C11347): 0.014
